37 compounds from patent US11866431B2, “Bicyclic compounds” (Vivace Therapeutics, Inc., priority 2018, dated 2024) can be followed below.

One assay concerns 8XTBD luciferase reporter (YAP reporter) in HEK293T cells. Description: YAP Reporter Assay. It is filed as cell-based. Conditions: Homo sapiens, HEK-293T, 24 h, read-out: Firefly Luciferase IC50 (μM). In a few lines: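 HEK293T cells stably carrying 8XTBD firefly luciferase and TK-renilla (3×10^3 cells/well) dosed 3-4 h after plating with compounds from 3 μM final, 1:3 dilution, 10 points, quadruplicates. After 24 h at 37° C, Dual-Glo readings gave IC50 and maximum inhibition reported separately for firefly and renilla.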
In the case of `CC(C)NC(=O)c1ccc2c(-c3ccc(C(F)(F)F)cc3)cc3scnc3c2c1` [Compound 68, N-isopropyl-5-(4-(trifluoromethyl)phenyl)naphtho[1,2-d]thiazole-8-carboxamide], the IC50 was less than 0.1 µM.

Staying with this assay, now noted: Homo sapiens, HEK-293T; HEK293T cells stably transfected with 8XTBD luciferase reporter and pRLTK; 24-hr incubation; top concentration 3 μM; read-out: Firefly Luciferase IC50.
Consider `C[C@H](NC(=O)c1ccc2c(-c3ccc(C(F)(F)F)cc3)cccc2c1)C1COC1` [Compound 269, (S)—N-(1-(oxetan-3-yl)ethyl)-5-(4-(trifluoromethyl)phenyl)-2-naphthamide], for which the 50% inhibitory concentration (IC50) was less than 0.1 µM.
On the same count and under the same terms, the result for `C[C@@H](NC(=O)c1ccc2c(-c3ccc(C(F)(F)F)cc3)cccc2c1)c1cccc(N(C)C)n1` [Compound 286, (R)—N-(1-(6-(dimethylamino)pyridin-2-yl)ethyl)-5-(4-(trifluoromethyl)phenyl)-2-naphthamide] reads less than 0.1 µM.
Regarding `CCN1CC([C@@H](C)NC(=O)c2cnc3c(-c4ccc(C(F)(F)F)cc4)cccc3c2)C1` [Compound 150, N-[(1R)-1-(1-Ethylazetidin-3-yl)ethyl]-8-[4-(trifluoromethyl)phenyl]quinoline-3-carboxamide], the half-maximal inhibitory concentration (IC50) is 1 to 3 µM.
In the case of `NCCOCCOCCNC(=O)c1ccc2c(-c3ccc(C(F)(F)F)cc3)cccc2c1` [Compound 50, N-(2-(2-(2-aminoethoxy)ethoxy)ethyl)-5-(4-(trifluoromethyl)phenyl)-2-naphthamide], the IC50 was in the range of 0.1 to 1 µM.
On the same count and under the same terms, next, `C[C@H](CN)NC(=O)c1ccc2c(-c3ccc(C(F)(F)F)cc3)cccc2c1` [Compound 60, (R)—N-(1-aminopropan-2-yl)-5-(4-(trifluoromethyl)phenyl)-2-naphthamide]: less than 0.1 µM; `O=C(NC(CO)Cc1ccccn1)c1ccc2c(-c3ccc(C(F)(F)F)cc3)cccc2c1` (stereo not shown) [Compound 197, N-(1-hydroxy-3-(pyridin-2-yl)propan-2-yl)-5-(4-(trifluoromethyl)phenyl)-2-naphthamide]: 0.1 to 1 µM; `O=C(N[C@@H](CCO)c1ccccn1)c1ccc2c(-c3ccc(C(F)(F)F)cc3)cccc2c1` [Compound 164, (S)—N-(3-hydroxy-1-(pyridin-2-yl)propyl)-5-(4-(trifluoromethyl)phenyl)-2-naphthamide]: less than 0.1 µM.
Still for that read-out and setting: the result for `[N-]=[N+]=NCCCNC(=O)c1ccc2c(-c3ccc(C(F)(F)F)cc3)cccc2c1` [Compound 256, N-(3-azidopropyl)-5-(4-(trifluoromethyl)phenyl)-2-naphthamide] reads 0.1 to 1 µM.
The same measure, in the same setting: the result for `N#CC(O)CCCCNC(=O)c1ccc2c(-c3ccc(C(F)(F)F)cc3)cccc2c1` (stereo not shown) [Compound 231, N-(5-cyano-5-hydroxy-pentyl)-5-[4-(trifluoromethyl)phenyl]naphthalene-2-carboxamide] reads 0.1 to 1 µM.
`C[C@H](CCO)NC(=O)c1ccc2c(-c3ccc(C(F)(F)F)cc3)cccc2c1` [Compound 167, N-[(1R)-3-hydroxy-1-methyl-propyl]-5-[4-(trifluoromethyl)phenyl]naphthalene-2-carboxamide]: the 50% inhibitory concentration (IC50) is less than 0.1 µM.
Consider `COC(=O)c1ccc2c(-c3ccc(C(F)(F)F)cc3)nccc2c1` [Compound 9, Methyl 1-[4-(trifluoromethyl)phenyl]isoquinoline-6-carboxylate], for which the IC50 was 0.1 to 1 µM.
Same read-out and setting: the result for `C[C@@H](NC(=O)c1ccc2c(-c3ccc(C(F)(F)F)cc3)cccc2c1)c1cnccn1` [Compound 283, (R)—N-(1-(pyrazin-2-yl)ethyl)-5-(4-(trifluoromethyl)phenyl)-2-naphthamide] reads less than 0.1 µM.
Still for that read-out and setting: next, `N#Cc1cc(CNC(=O)c2ccc3c(-c4ccc(C(F)(F)F)cc4)cccc3c2)ccn1` [Compound 186, N-((2-cyanopyridin-4-yl)methyl)-5-(4-(trifluoromethyl)phenyl)-2-naphthamide]: less than 0.1 µM.
Consider `C[C@H](CO)NC(=O)c1cnc2c(-c3ccc(C(F)(F)F)cc3)cccc2n1` [Compound 267, (R)—N-(1-hydroxypropan-2-yl)-5-(4-(trifluoromethyl)phenyl)quinoxaline-2-carboxamide], for which the IC50 lay in the range of 0.1 to 1 µM.
As to `CCS(=O)(=O)NC(=O)c1ccc2c(-c3ccc(C(F)(F)F)cc3)cccc2c1` [Compound 78, N-(ethylsulfonyl)-5-(4-(trifluoromethyl)phenyl)-2-naphthamide], the concentration for half-maximal inhibition (IC50) was 0.1 to 1 µM.
On the same count and under the same terms, the result for `C[C@H](CO)NC(=O)c1ccc2c(-c3ccc(C(F)(F)F)cc3)cccc2c1` [Compound 85, (R)—N-(1-hydroxypropan-2-yl)-5-(4-(trifluoromethyl)phenyl)-2-naphthamide] reads less than 0.1 µM; that for `COC(=O)/C=C/CCNC(=O)c1ccc2c(-c3ccc(C(F)(F)F)cc3)cccc2c1` [Compound 230, methyl (E)-5-[[5-[4-(trifluoromethyl)phenyl]naphthalene-2-carbonyl]amino]pent-2-enoate], 0.1 to 1 µM; that for `COc1cc(-c2ccc(C(F)(F)F)cc2)c2ccc(C(=O)N[C@H](C)CO)cc2c1` [Compound 297, (R)—N-(1-Hydroxypropan-2-yl)-7-methoxy-5-(4-(trifluoromethyl)phenyl)-2-naphthamide], less than 0.1 µM.
The same measure, in the same setting: the result for `COc1cccc(CNC(=O)c2ccc3c(-c4ccc(C(F)(F)F)cc4)cccc3c2)c1` [Compound 240, N-(3-methoxybenzyl)-5-(4-(trifluoromethyl)phenyl)-2-naphthamide] reads 0.1 to 1 µM; that for `CC(=O)Nc1ccc(-c2ccc(C(F)(F)F)cc2)c2ccc(C(=O)NC(C)C)cc12` [Compound 17, 8-acetamido-N-isopropyl-5-(4-(trifluoromethyl)phenyl)-2-naphthamide], less than 0.1 µM.
In the case of `N#Cc1cccc(CNC(=O)c2ccc3c(-c4ccc(C(F)(F)F)cc4)cccc3c2)c1` [Compound 215, N-(3-cyanobenzyl)-5-(4-(trifluoromethyl)phenyl)-2-naphthamide], the 50% inhibitory concentration (IC50) was less than 0.1 µM.
On the same count and under the same terms, next, `COc1cc(-c2ccc(C(F)(F)F)cc2F)c2ncc(C(=O)N[C@H](C)CO)cc2c1` [Compound 233, (R)-8-(2-Fluoro-4-(trifluoromethyl)phenyl)-N-(1-hydroxypropan-2-yl)-6-methoxyquinoline-3-carboxamide]: less than 0.1 µM.
The same measure, in the same setting: next, `N#C/C=C/CCCNC(=O)c1ccc2c(-c3ccc(C(F)(F)F)cc3)cccc2c1` [Compound 227, N-[(E)-5-cyanopent-4-enyl]-5-[4-(trifluoromethyl)phenyl]naphthalene-2-carboxamide]: less than 0.1 µM; `C[C@@H](CCO)NC(=O)c1ccc2c(-c3ccc(C(F)(F)F)cc3)cccc2c1` [Compound 166, N-[(1S)-3-hydroxy-1-methyl-propyl]-5-[4-(trifluoromethyl)phenyl]naphthalene-2-carboxamide]: less than 0.1 µM; `COC[C@@H](C)NC(=O)c1ccc2c(-c3ccc(C(F)(F)F)cc3)cc(OC)cc2c1` [Compound 295, (R)-7-Methoxy-N-(1-methoxypropan-2-yl)-5-(4-(trifluoromethyl)phenyl)-2-naphthamide]: less than 0.1 µM.
On the same count and under the same terms, the result for `C[C@H](NC(=O)c1ccc2c(-c3ccc(C(F)(F)F)cc3)cccc2n1)c1ccccn1` [Compound 244, (S)—N-(1-(Pyridin-2-yl)ethyl)-5-(4-(trifluoromethyl)phenyl)quinoline-2-carboxamide] reads less than 0.1 µM.
With `COc1cc(-c2ccc(C(F)(F)F)cc2)c2ncc(C(=O)N[C@H](C)CO)cc2c1` [Compound 98, N-[(1R)-2-hydroxy-1-methyl-ethyl]-6-methoxy-8-[4-(trifluoromethyl)phenyl]quinoline-3-carboxamide], the IC50 was less than 0.1 µM.
Same read-out and setting: the result for `CSc1cc(-c2ccc(C(F)(F)F)cc2)c2ccc(C(=O)NC(C)C)cc2c1` [Compound 42, N-isopropyl-7-(methylthio)-5-(4-(trifluoromethyl)phenyl)-2-naphthamide] reads less than 0.1 µM.
Same read-out and setting: the result for `CC(C)NC(=O)c1ccc2c(-c3ccc(C(F)(F)F)cc3)cc(N)c(O)c2c1` [Compound 95, 7-amino-8-hydroxy-N-isopropyl-5-(4-(trifluoromethyl)phenyl)-2-naphthamide] reads 0.1 to 1 µM; that for `O=C(NCc1ccncc1)c1ccc2c(-c3ccc(C(F)(F)F)cc3)cccc2c1` [Compound 229, N-(pyridin-4-ylmethyl)-5-(4-(trifluoromethyl)phenyl)-2-naphthamide], less than 0.1 µM.
In the case of `COC(=O)c1ccc2c(-c3ccc(C(F)(F)F)cc3)cn(C)c(=O)c2c1` [Compound 15, Methyl 2-methyl-1-oxo-4-[4-(trifluoromethyl)phenyl]isoquinoline-7-carboxylate], the IC50 fell in the range of 0.1 to 1 µM.
The same measure, in the same setting: next, `C[C@@H](NC(=O)c1ccc2c(-c3ccc(C(F)(F)F)cc3)cccc2c1)C1CNC1` [Compound 203, (R)—N-(1-(azetidin-3-yl)ethyl)-5-(4-(trifluoromethyl)phenyl)-2-naphthamide]: less than 0.1 µM; `CC(NC(=O)c1ccc2c(-c3ccc(C(F)(F)F)cc3)cccc2c1)c1cc(Br)ccn1` (stereo not shown) [Compound 225, N-(1-(4-bromopyridin-2-yl)ethyl)-5-(4-(trifluoromethyl)phenyl)-2-naphthamide]: less than 0.1 µM; `CC(C)NC(=O)c1ccc2c(-c3ccc(C(F)(F)F)cc3)cc(N)cc2c1` [Compound 44, 7-amino-N-isopropyl-5-[4-(trifluoromethyl)phenyl]naphthalene-2-carboxamide]: less than 0.1 µM.
On the same count and under the same terms, the result for `CCOc1cc(-c2ccc(C(F)(F)F)cc2)c2ncc(C(=O)NS(C)(=O)=O)cc2c1` [Compound 81, 6-ethoxy-N-(methylsulfonyl)-8-(4-(trifluoromethyl)phenyl)quinoline-3-carboxamide] reads 0.1 to 1 µM.
The same measure, in the same setting: next, `C[C@H](CN1CCOCC1)NC(=O)c1ccc2c(-c3ccc(C(F)(F)F)cc3)cccc2c1` [Compound 70, (R)—N-(1-morpholinopropan-2-yl)-5-(4-(trifluoromethyl)phenyl)-2-naphthamide]: 1 to 3 µM.
